# Test results taken from BindingDB's records for doi:10.7270/Q2F47MKR (Burnham Center For Chemical Genomics, 2010).
# Assay: blockers of orphan receptor GPR35 – imaging, image-based, set 2, SAR follow-up (AID 2480)
# Conditions: not given
row,Structure (SMILES),IC50
1,"Cc1c(C(=O)Nc2ccc3c(c2)OCCO3)sc2ncnc(N3CCC(C)CC3)c12 [N-(2,3-dihydro-1,4-benzodioxin-6-yl)-5-methyl-4-(4-methyl-1-piperidinyl)-6-thieno[2,3-d]pyrimidinecarboxamide]",4.07 µM
2,"COc1ccc(-c2nnc(-c3cccnc3)o2)cc1 [2-(4-methoxyphenyl)-5-pyridin-3-yl-1,3,4-oxadiazole]",> 32 µM
3,Clc1ccccc1Cn1ncc2c(N3CCN(c4ccccc4)CC3)ncnc21,> 32 µM
4,CCC(Sc1nc2ccsc2c(=O)n1Cc1ccc(C(=O)O)cc1)C(=O)Nc1ccc(Cl)cc1 (stereo unspecified) [MLS-0435427.0001],> 32 µM
5,"COc1ccc(/C=C2\SC(=S)N(CCCC(=O)Nc3cccc(C(=O)O)c3)C2=O)cc1OC [3-[4-[(5Z)-5-[(3,4-dimethoxyphenyl)methylidene]-4-oxidanylidene-2-sulfanylidene-1,3-thiazolidin-3-yl]butanoylamino]benzoic acid]",0.607 µM
6,O=C(Nc1ccc2nc(SCc3ccc(Cl)cc3)sc2c1)c1ccccc1C(=O)N1CCOCC1,0.554 µM
7,C=CCn1c(C)c(/C=C/c2cc[n+](C)cc2)c2ccccc21 [2-methyl-3-[(E)-2-(1-methyl-4-pyridin-1-iumyl)ethenyl]-1-prop-2-enylindole;iodide],4.99 µM
8,O=C(Nc1ccc2nc(SCc3ccc(Cl)c(Cl)c3)sc2c1)c1ccccc1Br,> 32 µM
9,Cc1ccc2[nH]c(C)c(/C=C/c3cc[n+](C)cc3)c2c1,2.36 µM
10,"COc1ccc(/C=C2/SC(=S)N(CCCC(=O)Nc3ccc(O)cc3)C2=O)cc1 [N-(4-hydroxyphenyl)-4-[(5E)-5-[(4-methoxyphenyl)methylidene]-4-oxidanylidene-2-sulfanylidene-1,3-thiazolidin-3-yl]butanamide]",1.07 µM
11,O=C(CCCN1C(=O)S/C(=C\C=C\c2ccccc2)C1=O)Nc1ccc(C(=O)O)cc1 [MLS000948015],1.17 µM
12,O=C(CCCN1C(=O)/C(=C\c2ccccc2)SC1=S)Nc1ccc(C(=O)O)cc1 [4-[[1-oxo-4-[(5E)-4-oxo-5-(phenylmethylene)-2-sulfanylidene-3-thiazolidinyl]butyl]amino]benzoic acid],1.68 µM
13,"COc1ccc(/C=C2\SC(=S)N(CCCC(=O)Nc3ccc(C(=O)O)c(O)c3)C2=O)cc1OC [4-[4-[(5Z)-5-[(3,4-dimethoxyphenyl)methylidene]-4-oxo-2-sulfanylidene-1,3-thiazolidin-3-yl]butanoylamino]-2-hydroxybenzoic acid]",0.151 µM
14,"COc1cccc(/C=C2\SC(=S)N(CCCC(=O)Nc3ccc(C(=O)O)cc3)C2=O)c1 [4-[4-[(5Z)-5-[(3-methoxyphenyl)methylidene]-4-oxo-2-sulfanylidene-1,3-thiazolidin-3-yl]butanoylamino]benzoic acid]",0.651 µM
15,Fc1ccc(N2CCN(c3ncnc4c3cnn4Cc3ccc(Cl)cc3Cl)CC2)cc1 [MLS-0435440.0001],> 32 µM
16,O=C(CCCN1C(=O)/C(=C\c2ccccc2)SC1=S)Nc1cccc(C(=O)O)c1 [3-[4-(5-Benzylidene-4-oxo-2-thioxo-thiazolidin-3-yl)-butyrylamino]-benzoic acid],1.6 µM
17,Cc1nc(N2CCC(C)CC2)c2c(C)c(C(=O)Nc3ccc(C)c(F)c3)sc2n1 [MLS-0244945.0001],6.1 µM
18,"CC(/C=C1\SC(=S)N(CCCC(=O)Nc2ccc(C(=O)O)cc2)C1=O)=C\c1ccccc1 [4-[4-[(5Z)-5-[(E)-2-methyl-3-phenyl-prop-2-enylidene]-4-oxidanylidene-2-sulfanylidene-1,3-thiazolidin-3-yl]butanoylamino]benzoic acid]",0.105 µM
19,Cc1ccc(C)c(OCCC(=O)NCCc2ccc(S(N)(=O)=O)cc2)c1,> 32 µM
20,O=C(CCCN1C(=O)/C(=C/c2ccc3c(c2)OCO3)SC1=S)Nc1ccc(C(=O)O)cc1 [SMR000664854],1.18 µM
21,Clc1ccc(Cn2ncc3c(N4CCN(c5ccccc5)CC4)ncnc32)cc1,7.17 µM
22,"O=C(Nc1ccc2nc(SCc3ccccc3)sc2c1)c1ccccc1C(=O)N1CCOCC1 [2-[4-morpholinyl(oxo)methyl]-N-[2-(phenylmethylthio)-1,3-benzothiazol-6-yl]benzamide]",1.61 µM
23,"Cc1nc(N2CCC(C)CC2)c2c(C)c(C(=O)Nc3ccc4c(c3)OCCO4)sc2n1 [N-(2,3-dihydro-1,4-benzodioxin-6-yl)-2,5-dimethyl-4-(4-methyl-1-piperidinyl)-6-thieno[2,3-d]pyrimidinecarboxamide]",1.88 µM
24,O=C(CCCN1C(=O)/C(=C/c2ccccc2)SC1=S)Nc1ccc(O)cc1 [N-(4-hydroxyphenyl)-4-[(5Z)-4-oxo-5-(phenylmethylene)-2-sulfanylidene-3-thiazolidinyl]butanamide],8.71 µM
25,"O=C(CCCN1C(=O)S/C(=C/C=C/c2ccccc2)C1=O)Nc1ccc(C(=O)O)cc1 [4-[4-[(5E)-2,4-dioxo-5-[(E)-3-phenylprop-2-enylidene]-1,3-thiazolidin-3-yl]butanoylamino]benzoic acid]",1.17 µM

row,Structure (SMILES),IC50
1,COc1ccc(/C=C2\SC(=S)N(CCCC(=O)Nc3ccc(O)cc3)C2=O)cc1 [MLS-0304362.0001],1.16 µM
2,Cn1cc(/C=C/c2cc[n+](C)cc2)c2cc(Cl)ccc21 [5-chloranyl-1-methyl-3-[(E)-2-(1-methylpyridin-1-ium-4-yl)ethenyl]indole;hydroiodide],5.17 µM
3,O=C(CCCN1C(=O)S/C(=C/c2ccccc2)C1=S)Nc1ccc(C(=O)O)cc1 [MLS001167691],1.6 µM
4,"COC(=O)CSc1nc2ccc(NC(=O)c3ccccc3C(=O)N3CCOCC3)cc2s1 [methyl 2-[[6-[(2-morpholin-4-ylcarbonylphenyl)carbonylamino]-1,3-benzothiazol-2-yl]sulfanyl]ethanoate]",> 32 µM
5,Cc1ccc(/C=C2\SC(=S)N(CCCC(=O)Nc3cccc(C(=O)O)c3)C2=O)cc1 [MLS001034563],0.24 µM
6,CCOC(=O)c1ccc(NC(=O)CCCN2C(=O)/C(=C/c3ccc(C)cc3)SC2=S)cc1 [MLS-0435416.0001],2.6 µM
7,"Cc1ccccc1N1CCN(c2ncnc3c2cnn3Cc2ccc(Cl)cc2)CC1 [1-[(4-chlorophenyl)methyl]-4-[4-(2-methylphenyl)-1-piperazinyl]pyrazolo[3,4-d]pyrimidine]",2.22 µM
8,CCC(Sc1nc2ccsc2c(=O)n1Cc1ccc(C(=O)O)cc1)C(=O)Nc1ccc(C)c(Cl)c1 (stereo unspecified),> 32 µM
9,Cc1c(C(=O)Nc2ccc3c(c2)OCCO3)sc2ncnc(N3CCCCC3C)c12 (stereo unspecified) [MLS-0359029.0001],> 32 µM
10,"O=C(CCCN1C(=O)/C(=C/c2ccc3c(c2)OCO3)SC1=S)Nc1cccc(C(=O)O)c1 [3-[[4-[(5Z)-5-(1,3-benzodioxol-5-ylmethylidene)-4-oxo-2-sulfanylidene-3-thiazolidinyl]-1-oxobutyl]amino]benzoic acid]",0.983 µM
11,CC(C)COc1ccc(-c2nnc(-c3ccc(Cl)nc3)o2)cc1 [MLS-0435441.0001],> 32 µM
12,COc1ccc(Cn2c(SCC(=O)Nc3ccc(C)c(C)c3)nc3ccsc3c2=O)cc1,> 32 µM
13,"O=C(CCCN1C(=O)/C(=C/c2ccccc2)SC1=S)Nc1ccc(C(=O)O)c(O)c1 [4-[4-[(5Z)-5-benzylidene-4-oxo-2-sulfanylidene-1,3-thiazolidin-3-yl]butanoylamino]-2-hydroxybenzoic acid]",0.295 µM
14,Cc1ccccc1OCCC(=O)NCCc1ccc(S(N)(=O)=O)cc1 [MLS-0213188.0001],> 32 µM
15,"CC(C)c1ccc(NC(=O)CSc2nc3ccsc3c(=O)n2Cc2ccc(C(=O)O)cc2)cc1 [4-[[4-oxo-2-[2-oxo-2-(4-propan-2-ylanilino)ethyl]sulfanylthieno[3,2-d]pyrimidin-3-yl]methyl]benzoic acid]",1.33 µM
16,"CCOC(=O)c1ccc(NC(=O)CCCN2C(=O)/C(=C/c3ccccc3)SC2=S)cc1 [ethyl 4-[4-[(5Z)-5-benzylidene-4-oxo-2-sulfanylidene-1,3-thiazolidin-3-yl]butanoylamino]benzoate]",8.63 µM
17,c1ccc(-c2n[n+](-c3ccccc3)c(-c3ccccc3)s2)cc1,> 32 µM
18,CC(C)(C)c1ccc(OCCC(=O)NCCc2ccc(S(N)(=O)=O)cc2)cc1 [MLS001151090],2.23 µM
19,"Clc1ccc(Cn2ncc3c(N4CCN(c5cccc(Cl)c5)CC4)ncnc32)cc1 [1-[(4-chlorophenyl)methyl]-4-[4-(3-chlorophenyl)piperazin-1-yl]pyrazolo[3,4-d]pyrimidine]",> 32 µM
20,"CCc1ccc(NC(=O)CSc2nc3ccsc3c(=O)n2Cc2ccc(OC)cc2)cc1 [N-(4-ethylphenyl)-2-[[3-[(4-methoxyphenyl)methyl]-4-oxo-2-thieno[3,2-d]pyrimidinyl]thio]acetamide]",> 32 µM
21,"Cc1ccc(Cn2ncc3c(N4CCN(c5ccccc5C)CC4)ncnc32)cc1 [1-(4-methylbenzyl)-4-[4-(2-methylphenyl)-1-piperazinyl]-1H-pyrazolo[3,4-d]pyrimidine]",2.65 µM
22,CCc1ccc(/C=C2\SC(=S)N(CCCC(=O)Nc3ccc(C(=O)O)cc3)C2=O)cc1 [SMR000646238],0.0718 µM
23,Cc1ccc(OCCC(=O)NCCc2ccc(S(N)(=O)=O)cc2)cc1 [MLS-0213737.0001],> 32 µM
24,Cc1ccc(/C=C2\SC(=S)N(CCCC(=O)Nc3ccc(O)cc3)C2=O)cc1 [MLS000777252],1.42 µM

# Same assay, conditions: inactive by the depositor's call
row,Structure (SMILES),IC50
1,"O=C(CCCN1C(=O)/C(=C\c2cccs2)SC1=S)Nc1ccc(O)cc1 [N-(4-hydroxyphenyl)-4-[(5E)-4-oxo-2-sulfanylidene-5-(thiophen-2-ylmethylidene)-1,3-thiazolidin-3-yl]butanamide]",11 µM
2,Cc1ccc(Cn2ncc3c(N4CCN(c5ccc(C)cc5)CC4)ncnc32)cc1,17.7 µM
3,Cc1nc(N2CCC(C)CC2)c2c(C)c(C(=O)Nc3ccccc3C(F)(F)F)sc2n1 [SMR000312025],10.2 µM
4,O=C(CCCN1C(=O)/C(=C/c2cccs2)SC1=S)Nc1ccc(O)cc1,10.7 µM
5,"c1ccc(Cn2ncc3c(N4CCN(c5ccccc5)CC4)ncnc32)cc1 [1-(phenylmethyl)-4-(4-phenylpiperazin-1-yl)pyrazolo[3,4-d]pyrimidine]",17 µM
6,"O=C(CCCN1C(=O)/C(=C\c2ccccc2)SC1=S)Nc1ccc(O)cc1 [N-(4-hydroxyphenyl)-4-[(5E)-4-oxidanylidene-5-(phenylmethylidene)-2-sulfanylidene-1,3-thiazolidin-3-yl]butanamide]",11.8 µM
7,CCOc1ccc(NC(=O)CSc2nc3ccsc3c(=O)n2Cc2ccc(C(=O)O)cc2)cc1,12.5 µM
